The results in this text go back to PubChem BioAssay (NCI).

Some test systems named below: MDA-MB-231 breast; SF-295 CNS; M14 melanoma; NCI-H23 lung; MOLT-4 leukemia; A498 renal; HCT-15 colon; MCF7 breast; NCI-H226 lung; SF-539 CNS.
Common to all, as to assay: growth of human tumour cells (NCI), 48 h

SMILES strings stand for the structures. “And” between values parts separate entries of the source, which are not always exact repeats. Identical values can stand only once.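 Results reflect a 48-hour exposure of cells in 96-well plates to compound at five concentrations. At the GI50, growth is halved. TGI: total growth inhibition.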 A value given as a limit tells only on which side of the number the result lay.

Consider `NC(=S)N/N=C/c1cc(-c2cccc(N)c2)ccn1`, for which the GI50 in the assay on MDA-MB-231 breast is 3.6 µM; in the assay on SF-295 CNS it was 1.66 µM; with M14 melanoma, 1.49 µM; with NCI-H23 lung, 1.91 µM; in the assay with MOLT-4 leukemia, 0.588 µM; in the assay with A498 renal, 1.61 µM. For the same molecule, the GI50 in the assay on HCT-15 colon is 2.71 µM; in the assay on MCF7 breast it was 2 µM; in the assay with NCI-H226 lung it was 1.73 µM; in the assay on SF-539 CNS, 0.675 µM. For the same molecule, the TGI was > 100 µM in the assay on MDA-MB-231 breast; 31 µM in the assay with SF-295 CNS; 4.21 µM in the assay on M14 melanoma; > 100 µM in the assay on NCI-H23 lung; > 100 µM in the assay with MOLT-4 leukemia; 19.1 µM in the assay on A498 renal. In addition, the TGI in the assay with HCT-15 colon is > 100 µM; with MCF7 breast, > 44.8 µM; in the assay with NCI-H226 lung, 8.18 µM; in the assay on SF-539 CNS, 6.17 µM.
Regarding `Cn1c(=O)c2c(ncn2CC(=O)Nc2ccc(-c3ccccc3)nn2)n(C)c1=O`, the GI50 in the assay on MDA-MB-231 breast is 23.1 µM; with SF-295 CNS it was > 100 µM; in the assay on M14 melanoma it was 10.4 µM; in the assay with NCI-H23 lung, > 100 µM; with MOLT-4 leukemia, > 100 µM; with A498 renal, 54.1 µM. Moreover, the GI50 in the assay on HCT-15 colon, in the assay with MCF7 breast, in the assay on NCI-H226 lung and in the assay on SF-539 CNS was > 100 µM each time. Also, the TGI in the assay on MDA-MB-231 breast, in the assay with SF-295 CNS, with M14 melanoma, with NCI-H23 lung, in the assay on MOLT-4 leukemia and in the assay on A498 renal was > 100 µM in each case. Also, the TGI in the assay with HCT-15 colon, with MCF7 breast, with NCI-H226 lung and in the assay with SF-539 CNS was > 100 µM throughout.
Regarding `Nc1ccc2[nH]cc(CCC(=O)O)c2c1`, the TGI in the assay with MDA-MB-231 breast, in the assay with SF-295 CNS, with M14 melanoma, in the assay on NCI-H23 lung, in the assay with MOLT-4 leukemia and in the assay with A498 renal was > 100 µM in each case. The TGI in the assay on HCT-15 colon, with MCF7 breast, in the assay with NCI-H226 lung and in the assay on SF-539 CNS was > 100 µM in each case.
On to `CC[C@@]1(O)C(=O)OCc2c1cc1n(c2=O)Cc2c-1nc1cc(F)c(C)c3c1c2[C@@H](N)CC3`, for which the GI50 is 0.162 µM in the assay on MDA-MB-231 breast; < 0.01 µM in the assay on SF-295 CNS; < 0.01 µM in the assay on M14 melanoma; < 0.01 µM in the assay with NCI-H23 lung; < 0.01 µM with MOLT-4 leukemia; < 0.01 µM with A498 renal. Besides, the GI50 in the assay with HCT-15 colon was 0.0215 µM; in the assay on MCF7 breast, < 0.01 µM; in the assay on NCI-H226 lung, < 0.01 µM; with SF-539 CNS, < 0.01 µM. For the same molecule, the TGI with MDA-MB-231 breast was > 100 µM; in the assay with SF-295 CNS, 0.0915 µM; in the assay on M14 melanoma it was 0.111 µM; in the assay with NCI-H23 lung, 0.0638 µM; with MOLT-4 leukemia, > 100 µM; in the assay on A498 renal it was 0.0221 µM. Besides, the TGI in the assay with HCT-15 colon was > 100 µM; with MCF7 breast, > 100 µM; in the assay on NCI-H226 lung, 0.0358 µM; in the assay on SF-539 CNS it was 0.0187 µM.
`Nc1nc(N)nc(CCCc2nc(N)nc(N)n2)n1`: the TGI in the assay with MDA-MB-231 breast, in the assay on SF-295 CNS, in the assay with M14 melanoma, with NCI-H23 lung, in the assay with MOLT-4 leukemia and with A498 renal was > 100 µM throughout. Besides, the TGI with HCT-15 colon, in the assay on MCF7 breast, in the assay on NCI-H226 lung and in the assay on SF-539 CNS was > 100 µM throughout.
With `Cc1ncc([N+](=O)[O-])n1CCNS(=O)(=O)CCCn1ncnc1[N+](=O)[O-]`, the TGI with MDA-MB-231 breast, with SF-295 CNS, with M14 melanoma, with NCI-H23 lung, with MOLT-4 leukemia and in the assay on A498 renal was > 100 µM throughout. Further, the TGI in the assay on HCT-15 colon, with MCF7 breast, in the assay with NCI-H226 lung and with SF-539 CNS was > 100 µM in each case.
Take `O=c1oc2ccc(Br)cc2c(=O)n1-c1ccc(F)cc1F`: the GI50 with MDA-MB-231 breast was 2.11 µM; with SF-295 CNS it was 1.88 µM; in the assay on M14 melanoma, 1.59 µM; with NCI-H23 lung, 2.55 µM; in the assay on MOLT-4 leukemia it was 3.12 µM; with A498 renal, 1.16 µM. Also, the GI50 in the assay with HCT-15 colon is 3.04 µM; in the assay with MCF7 breast, 2.57 µM; in the assay with NCI-H226 lung, 2.32 µM; in the assay with SF-539 CNS, 2.17 µM. Also, the TGI in the assay on MDA-MB-231 breast was 6.96 µM; in the assay on SF-295 CNS, 3.71 µM; with M14 melanoma, 7.55 µM; in the assay with NCI-H23 lung, 10.1 µM; with MOLT-4 leukemia it was > 100 µM; in the assay on A498 renal it was 3.02 µM. Further, the TGI in the assay on HCT-15 colon is 12.8 µM; with MCF7 breast, > 100 µM; with NCI-H226 lung, 13.8 µM; in the assay on SF-539 CNS, 9.21 µM.
Take `CCCCCCCCCCCCOC1C(C(CC(=O)NCCN2CCCC2)NS(=O)(=O)c2cc(Cl)cc(Cl)c2)OC2OC(C)(C)OC21` (stereo not given): the GI50 is 1.81 µM in the assay on MDA-MB-231 breast; 1.9 µM in the assay on SF-295 CNS; 1.71 µM in the assay on M14 melanoma; 2.21 µM in the assay with NCI-H23 lung; 2.03 µM in the assay on MOLT-4 leukemia; 2.4 µM in the assay with A498 renal. In addition, the GI50 in the assay on HCT-15 colon is 1.71 µM; in the assay on MCF7 breast it was 1.98 µM and 1.73 µM; with NCI-H226 lung it was 1.86 µM; in the assay on SF-539 CNS, 2.01 µM. Also, the TGI came out at 3.23 µM in the assay with MDA-MB-231 breast; 4.69 µM in the assay on SF-295 CNS; 3.45 µM with M14 melanoma; 4.76 µM with NCI-H23 lung; 4.33 µM with MOLT-4 leukemia; 4.79 µM in the assay on A498 renal. Further, the TGI in the assay with HCT-15 colon is 3.18 µM; in the assay with MCF7 breast, 3.91 µM and 3.51 µM; in the assay on NCI-H226 lung, 4.04 µM; in the assay on SF-539 CNS, 3.48 µM.
`Cc1ccc(Nc2nnc(-c3ccc4c(c3)OCO4)o2)c(C)c1`: the TGI in the assay with MDA-MB-231 breast, in the assay with SF-295 CNS, in the assay with M14 melanoma, in the assay with NCI-H23 lung, in the assay on MOLT-4 leukemia and with A498 renal was > 100 µM each time. Besides, the TGI in the assay on HCT-15 colon, with MCF7 breast, in the assay with NCI-H226 lung and in the assay with SF-539 CNS was > 100 µM each time.
